In patent US20190374627A1, “TARGET PEPTIDES FOR CANCER THERAPY AND DIAGNOSTICS” (priority 2016, published 2019):
Square brackets hold non-standard residues; d marks the D form. Ends that are not written are not given here. pS = N[C@@H](COP(=O)(O)O)C(=O)O

Tests used:
CD8^+ T cells (PBMCs) = test: Intracellular cytokine staining (ICS) of PBMCs after 7 days of stimulation with MHC-I-pP (healthy donors, HH patients); format: cell-based, human; conditions: for Reactive CD8^+ T cell population, HH2: HH patient HH2; for Reactive CD8^+ T cell population, HH3: HH patient HH3; for Reactive CD8^+ T cell population, HH6: HH patient HH6; for Reactive CD8^+ T cell population, HH8: HH patient HH8; for Reactive CD8^+ T cell population, HH11: HH patient HH11; for Reactive CD8^+ T cell population, HD1: Healthy donor HD1; for Reactive CD8^+ T cell population, HD4: Healthy donor HD4; for Reactive CD8^+ T cell population, HD5: Healthy donor HD5
Procedure: From this, CD8^+ T cell responses against newly identified MHC class I-associated phosphopeptides in healthy individuals and patients with chronic liver disease were investigated. Twenty-one of the newly identified HCC-associated HLA-A*0201-restricted phosphopeptides were selected (see Table 17) for further immunological testing in HLA-A*0201 positive patients. MHC-I-pP-specific cytotoxic CD8^+ T cell responses (ppCTL) were assessed using intracellular cytokine staining (ICS) and several cytokines and surface markers were assessed in parallel. After 7 days of stimulation with the respective MHC-I-pP and no other cytokines, CD3- and CD8-expressing T cells were stained for at least two different cytokines (IFN-γ, TNF-α) and when required CD107a expression as a marker for their cytotoxic potential.
First, peripheral blood mononuclear cells (PBMCs) from healthy donors and patients with hereditary hemochromatosis (HH) were analyzed. HH is a chronic liver disease characterized by excessive intestinal absorption of dietary iron resulting in a pathological deposition of iron in the liver. PBMCs or lymphocytes from liver tissue were extracted and specifically stimulated with (phospho-) peptides for 7 days before intracellular cytokine staining (ICS). Doublets and dead cells, using a fixable viability dye, were excluded. Lymphocytes were gated on CD3^+ and CD8^+ double positive cells and were analysed for expression of IFNγ, TNFα-, and CD107a.

[1] = system: unexpanded lymphocyte cultures (CD8^+ T cells); test: ICS for MHC-I-pP reactivity of lymphocyte cultures without expansion (Table 23, No Expansion)
[2] = system: expanded lymphocyte cultures from deceased donor livers, cirrhotic livers and HCC; test: ICS for MHC-I-pP reactivity of liver-derived lymphocyte cultures after phosphopeptide-specific expansion; format: cell-based, human; conditions: for ppCTL response, Deceased Donor Liver Do 2 / ppCTL response, Deceased Donor Liver Do 3 / ppCTL response, Deceased Donor Liver Do 4 / ppCTL response, Deceased Donor Liver Do 6 / ppCTL response, End-stage Liver Cirrhosis IHL 11 / ppCTL response, End-stage Liver Cirrhosis IHL 12 / ppCTL response, End-stage Liver Cirrhosis IHL 13 / ppCTL response, End-stage Liver Cirrhosis IHL 15 / ppCTL response, HCC Distal HCC 1 / ppCTL response, HCC Tumor HCC 1 / ppCTL response, HCC Distal HCC 4 / ppCTL response, HCC Distal HCC 9 / ppCTL response, HCC Tumor HCC 9 / ppCTL response, HCC Distal HCC 12: pP-specifically expanded culture; for ppCTL response, HCC Distal HCC 1: HCC 1 Distal; for ppCTL response, HCC Tumor HCC 1: HCC 1 Tumor; for ppCTL response, HCC Distal HCC 4: HCC 4 Distal; for ppCTL response, HCC Distal HCC 9: HCC 9 Distal; for ppCTL response, HCC Tumor HCC 9: HCC 9 Tumor; for ppCTL response, HCC Distal HCC 12: HCC 12 Distal
[3] = system: expanded TIL / IHL cultures; test: ICS for MHC-I-pP reactivity of liver-derived lymphocyte cultures after unspecific rapid expansion protocol (REP); format: cell-based, human

Substance	Reactive CD8^+ T cell population, HH2 (CD8^+ T cells (PBMCs))	Reactive CD8^+ T cell population, HH3 (CD8^+ T cells (PBMCs))	Reactive CD8^+ T cell population, HH6 (CD8^+ T cells (PBMCs))	Reactive CD8^+ T cell population, HH8 (CD8^+ T cells (PBMCs))	Reactive CD8^+ T cell population, HH11 (CD8^+ T cells (PBMCs))	Reactive CD8^+ T cell population, HD1 (CD8^+ T cells (PBMCs))	Reactive CD8^+ T cell population, HD4 (CD8^+ T cells (PBMCs))	Reactive CD8^+ T cell population, HD5 (CD8^+ T cells (PBMCs))	Reactive CD8^+ T cells, No Expansion, HH6 [1]	Reactive CD8^+ T cells, pP-specific Expansion, Do2 [2]	Reactive CD8^+ T cells, pP-specific Expansion, Do4 [2]	Reactive CD8^+ T cells, pP-specific Expansion, HH6 [2]	ppCTL response, Deceased Donor Liver Do 2 [2]	ppCTL response, Deceased Donor Liver Do 3 [2]	ppCTL response, Deceased Donor Liver Do 4 [2]	ppCTL response, Deceased Donor Liver Do 6 [2]	ppCTL response, End-stage Liver Cirrhosis IHL 11 [2]	ppCTL response, End-stage Liver Cirrhosis IHL 12 [2]	ppCTL response, End-stage Liver Cirrhosis IHL 13 [2]	ppCTL response, End-stage Liver Cirrhosis IHL 15 [2]	also measured
NLVPMVATV (Cytomegalovirus) [reference compound]	4 (7.5-10% reactive CD8^-+ T cells)	0 (<0.25% reactive CD8^-+ T cells)	1 (0.25-2.5% reactive CD8^-+ T cells)	1 (0.25-2.5% reactive CD8^-+ T cells)	0 (<0.25% reactive CD8^-+ T cells)	0 (<0.25% reactive CD8^-+ T cells)	0 (<0.25% reactive CD8^-+ T cells)	0 (<0.25% reactive CD8^-+ T cells)	1 (0.25-2.5% reactive CD8^-+ T cells)	3 (5-7.5% reactive CD8^-+ T cells)	2 (2.5-5.0% reactive CD8^-+ T cells)	3 (5-7.5% reactive CD8^-+ T cells)	3 (5-7.5% reactive CD8-+ T cells)	0 (<0.25% reactive CD8-+ T cells)	2 (2.5-5.0% reactive CD8-+ T cells)	0 (<0.25% reactive CD8-+ T cells)	0 (<0.25% reactive CD8-+ T cells)	0 (<0.25% reactive CD8-+ T cells)	0 (<0.25% reactive CD8-+ T cells)	0 (<0.25% reactive CD8-+ T cells)	Reactive CD8^+ T cell population, HH10 (CD8^+ T cells (PBMCs); HH patient HH10): 3 (5-7.5% reactive CD8^-+ T cells); Reactive CD8^+ T cell population, HD2 (CD8^+ T cells (PBMCs); Healthy donor HD2): 0 (<0.25% reactive CD8^-+ T cells); Reactive CD8^+ T cell population, HD3 (CD8^+ T cells (PBMCs); Healthy donor HD3): 0 (<0.25% reactive CD8^-+ T cells); Reactive CD8^+ T cells, No Expansion, Do4 ([1]; Do4): 2 (2.5-5.0% reactive CD8^-+ T cells); ppCTL response, HCC Distal HCC 1 [2]: 1 (0.25-2.5% reactive CD8-+ T cells); ppCTL response, HCC Tumor HCC 1 [2]: 0 (<0.25% reactive CD8-+ T cells); ppCTL response, HCC Distal HCC 4 [2]: 0 (<0.25% reactive CD8-+ T cells); ppCTL response, HCC Distal HCC 9 [2]: 0 (<0.25% reactive CD8-+ T cells); ppCTL response, HCC Tumor HCC 9 [2]: 0 (<0.25% reactive CD8-+ T cells); ppCTL response, HCC Distal HCC 12 [2]: 0 (<0.25% reactive CD8-+ T cells); Reactive CD8^+ T cells, Non-specific Expansion, Do2 [3]: 0 (<0.25% reactive CD8^-+ T cells); Reactive CD8^+ T cells, Non-specific Expansion, Do4 [3]: 5 (10-20% reactive CD8^-+ T cells); Reactive CD8^+ T cells, Non-specific Expansion, HH6 [3]: 1 (0.25-2.5% reactive CD8^-+ T cells)
RTFsPTYGL: SYNM phosphopeptide, HLA-A*0201 (RTF[pS]PTYGL; listed as Homo sapiens)	0 (<0.25% reactive CD8^-+ T cells)	0 (<0.25% reactive CD8^-+ T cells)	0 (<0.25% reactive CD8^-+ T cells)	0 (<0.25% reactive CD8^-+ T cells)	0 (<0.25% reactive CD8^-+ T cells)	0 (<0.25% reactive CD8^-+ T cells)	0 (<0.25% reactive CD8^-+ T cells)	0 (<0.25% reactive CD8^-+ T cells)	1 (0.25-2.5% reactive CD8^-+ T cells)	0 (<0.25% reactive CD8^-+ T cells)	0 (<0.25% reactive CD8^-+ T cells)	3 (5-7.5% reactive CD8^-+ T cells)	0 (<0.25% reactive CD8-+ T cells)	0 (<0.25% reactive CD8-+ T cells)	0 (<0.25% reactive CD8-+ T cells)	0 (<0.25% reactive CD8-+ T cells)	0 (<0.25% reactive CD8-+ T cells)	0 (<0.25% reactive CD8-+ T cells)	0 (<0.25% reactive CD8-+ T cells)	1 (0.25-2.5% reactive CD8-+ T cells)	ppCTL response, HCC Distal HCC 1 [2]: 0 (<0.25% reactive CD8-+ T cells); ppCTL response, HCC Tumor HCC 1 [2]: 0 (<0.25% reactive CD8-+ T cells); ppCTL response, HCC Distal HCC 4 [2]: 0 (<0.25% reactive CD8-+ T cells); ppCTL response, HCC Distal HCC 9 [2]: 0 (<0.25% reactive CD8-+ T cells); ppCTL response, HCC Tumor HCC 9 [2]: 0 (<0.25% reactive CD8-+ T cells); ppCTL response, HCC Distal HCC 12 [2]: 0 (<0.25% reactive CD8-+ T cells); Reactive CD8^+ T cells, Non-specific Expansion, Do2 [3]: 0 (<0.25% reactive CD8^-+ T cells); Reactive CD8^+ T cells, Non-specific Expansion, Do4 [3]: 0 (<0.25% reactive CD8^-+ T cells); Reactive CD8^+ T cells, Non-specific Expansion, HH6 [3]: 0 (<0.25% reactive CD8^-+ T cells)
